The record followed here is US9006294B2, “Oral pharmaceutical formulation of pelubiprofen with improved dissolution rate and stability” (Daewon Pharm., Co., Ltd., priority 2008, dated 2015).

The nature of data set [1]: Dissolution test of pelubiprofen tablets, Paddle Method of Korean Pharmacopoeia. Type of data set: physicochemical. The text has this:
In accordance with the present invention, mean particle size of pelubiprofen preferably ranges from 1 to 30 μm. For example, pelubiprofen particles are difficult to prepare when less than 1 μm in mean particle size, although their dissolution rate increases thanks to the increased surface area thereof. On the other hand, pelubiprofen particles exceeding 30 μm in size have a decreased dissolution rate.
Pelubiprofen tablets differing in the mean particle size of pelubiprofen and the kinds and content of additives were measured for dissolution rate as follows.
A dissolution test was performed on the pelubiprofen tablets prepared in Examples 1 to 20 and Comparative Examples 1 to 18.
The dissolution test was performed according to the procedure of Paddle Method described in Korean Pharmacopoeia. In this regard, one tablet was tested in 900 mL of a dissolution medium (pH 1.2) at 37±0.5° C., with a maintenance of paddle rotation speed at 50 rpm. After a 45-min test, the dissolution medium was taken and filtered through a 0.45 μm filter, followed by the UV analysis of the filtrate.

A short description of data set [2]: Related compounds in pelubiprofen combined with single additives, stored two weeks at 60° C. The conditions noted are these: pelubiprofen 20 mg plus additive. It is filed as physicochemical. The procedure: Increased amounts of related compounds were measured after oral pharmaceutical formulations with different mean particle sizes (27.4 μm, 45.6 μm) of pelubiprofen in combination with different amounts of various additives were stored for two weeks under the severe condition of 60° C.

Regarding `CC(C(=O)O)c1ccc(/C=C2\CCCCC2=O)cc1` (centres unmarked) [pelubiprofen, 2-[4-(2-oxocyclohexylidenemethyl)phenyl]propionic acid], the dissolution rate is 85.8% in data set [1] (mean particle size of pelubiprofen 9.3 μm), 75.3% in data set [1] (mean particle size of pelubiprofen 19.1 μm), 70.4% in data set [1] (mean particle size of pelubiprofen 27.4 μm) and 41.4% in data set [1] (mean particle size of pelubiprofen 45.6 μm). Moreover, the “Increase of Related Cpd.” value in data set [2] (MPS of pelubiprofen 27.4 μm) is 9.5%; in data set [2] (MPS of pelubiprofen 45.6 μm), 2.6%. Further, the “Total Related Cpd.” value is given as 0.461% in data set [2] (MPS of pelubiprofen 27.4 μm) and 0.432% in data set [2] (MPS of pelubiprofen 45.6 μm).
